Results published in patent publication US10131652B2, “Pyrimidinyloxy benzene derivatives as herbicides” (E. I. DU PONT DE NEMOURS AND COMPANY, priority 2014, dated 2018).
Like-named read-outs stand apart in the source and are kept apart here.

Columns and labels:
Test in all cases: Test E pre-/postemergence plant response
Format in all cases: in vivo
[1] = test system: galium (catchweed bedstraw, Galium aparine); conditions: scale 0 to 100, read-out: Plant response rating, Galium; for pest or weed control at 16 g/ha: 16 g ai/ha; for pest or weed control at 31 g/ha: 31 g ai/ha; for pest or weed control at 62 g/ha: 62 g ai/ha; for pest or weed control at 125 g/ha: 125 g ai/ha
Summary of the method: (§1)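 Visual scores on a 0–100 scale (100 = complete control) were assigned against untreated controls 7–21 days after treatment in a controlled environment. Compounds, formulated with solvent plus surfactant, were applied to pre-emergence silt-loam sowings or to 1- to 4-leaf plants (2–18 cm) in potting medium.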

[2] = test system: green foxtail (Setaria viridis); conditions: scale 0 to 100, read-out: Plant response rating, Foxtail, Green; for pest or weed control at 16 g/ha: 16 g ai/ha; for pest or weed control at 31 g/ha: 31 g ai/ha; for pest or weed control at 62 g/ha: 62 g ai/ha; for pest or weed control at 125 g/ha: 125 g ai/ha
Summary of the method: as §1

[3] = test system: field violet (Viola arvensis); conditions: scale 0 to 100, read-out: Plant response rating, Field Violet; for pest or weed control at 16 g/ha: 16 g ai/ha; for pest or weed control at 31 g/ha: 31 g ai/ha; for pest or weed control at 62 g/ha: 62 g ai/ha; for pest or weed control at 125 g/ha: 125 g ai/ha
Summary of the method: as §1

[4] = test system: chickweed (common chickweed, Stellaria media); conditions: scale 0 to 100, read-out: Plant response rating, Chickweed; for pest or weed control at 16 g/ha: 16 g ai/ha; for pest or weed control at 31 g/ha: 31 g ai/ha; for pest or weed control at 62 g/ha: 62 g ai/ha; for pest or weed control at 125 g/ha: 125 g ai/ha
Summary of the method: as §1

## FC(F)c1cc(-c2ccccc2Oc2ncc(Cl)cn2)on1 [Compound 53, 5-chloro-2-[2-[3-(difluoromethyl)-5-isoxazolyl]phenoxy]pyrimidine]
[1]; post-emergence, Postemergence
  pest or weed control at 16 g/ha: 75%
  pest or weed control at 31 g/ha: 75%
  pest or weed control at 62 g/ha: 75%
  pest or weed control at 125 g/ha: 75%
[1]; pre-emergence, Preemergence
  pest or weed control at 16 g/ha: 25%
  pest or weed control at 31 g/ha: 30%
  pest or weed control at 62 g/ha: 60%
  pest or weed control at 125 g/ha: 100%
[2]; post-emergence, Postemergence
  pest or weed control at 16 g/ha: 10%
  pest or weed control at 31 g/ha: 10%
  pest or weed control at 62 g/ha: 10%
  pest or weed control at 125 g/ha: 25%
[2]; pre-emergence, Preemergence
  pest or weed control at 16 g/ha: 10%
  pest or weed control at 31 g/ha: 10%
  pest or weed control at 62 g/ha: 20%
  pest or weed control at 125 g/ha: 55%
[3]; post-emergence, Postemergence
  pest or weed control at 16 g/ha: 25%
  pest or weed control at 31 g/ha: 50%
  pest or weed control at 62 g/ha: 70%
  pest or weed control at 125 g/ha: 70%
[3]; pre-emergence, Preemergence
  pest or weed control at 16 g/ha: 50%
  pest or weed control at 31 g/ha: 25%
  pest or weed control at 62 g/ha: 60%
  pest or weed control at 125 g/ha: 100%
[4]; post-emergence, Postemergence
  pest or weed control at 16 g/ha: 30%
  pest or weed control at 31 g/ha: 50%
  pest or weed control at 62 g/ha: 60%
  pest or weed control at 125 g/ha: 65%
[4]; pre-emergence, Preemergence
  pest or weed control at 16 g/ha: 100%
  pest or weed control at 31 g/ha: 100%
  pest or weed control at 62 g/ha: 100%
  pest or weed control at 125 g/ha: 100%

## FC(F)c1cc(-c2ccccc2Oc2ncc(Br)cn2)no1 [Compound 62, 5-bromo-2-[2-[5-(difluoromethyl)-3-isoxazolyl]phenoxy]pyrimidine]
[1]; post-emergence, Postemergence
  pest or weed control at 16 g/ha: 70%
  pest or weed control at 31 g/ha: 70%
  pest or weed control at 62 g/ha: 75%
  pest or weed control at 125 g/ha: 90%
[1]; pre-emergence, Preemergence
  pest or weed control at 16 g/ha: 5%
  pest or weed control at 31 g/ha: 60%
  pest or weed control at 62 g/ha: 65%
  pest or weed control at 125 g/ha: 100%
[2]; post-emergence, Postemergence
  pest or weed control at 16 g/ha: 15%
  pest or weed control at 31 g/ha: 20%
  pest or weed control at 62 g/ha: 25%
  pest or weed control at 125 g/ha: 65%
[2]; pre-emergence, Preemergence
  pest or weed control at 16 g/ha: 20%
  pest or weed control at 31 g/ha: 40%
  pest or weed control at 62 g/ha: 65%
  pest or weed control at 125 g/ha: 85%
[3]; post-emergence, Postemergence
  pest or weed control at 16 g/ha: 60%
  pest or weed control at 31 g/ha: 65%
  pest or weed control at 62 g/ha: 70%
  pest or weed control at 125 g/ha: 85%
[3]; pre-emergence, Preemergence
  pest or weed control at 16 g/ha: 0%
  pest or weed control at 31 g/ha: 10%
  pest or weed control at 62 g/ha: 35%
  pest or weed control at 125 g/ha: 100%
[4]; post-emergence, Postemergence
  pest or weed control at 16 g/ha: 65%
  pest or weed control at 31 g/ha: 70%
  pest or weed control at 62 g/ha: 80%
  pest or weed control at 125 g/ha: 90%
[4]; pre-emergence, Preemergence
  pest or weed control at 16 g/ha: 65%
  pest or weed control at 31 g/ha: 75%
  pest or weed control at 62 g/ha: 100%
  pest or weed control at 125 g/ha: 100%

## Fc1cccc(Oc2ncc(Cl)cn2)c1-c1cc(C(F)F)no1 [Compound 144, 5-chloro-2-[2-[3-(difluoromethyl)-5-isoxazolyl]-3-fluorophenoxy]pyrimidine]
[1]; post-emergence, Postemergence
  pest or weed control at 16 g/ha: 80%
  pest or weed control at 31 g/ha: 95%
  pest or weed control at 62 g/ha: 100%
  pest or weed control at 125 g/ha: 100%
[1]; pre-emergence, Preemergence
  pest or weed control at 16 g/ha: 20%
  pest or weed control at 31 g/ha: 70%
  pest or weed control at 62 g/ha: 100%
  pest or weed control at 125 g/ha: 100%
[2]; post-emergence, Postemergence
  pest or weed control at 16 g/ha: 40%
  pest or weed control at 31 g/ha: 50%
  pest or weed control at 62 g/ha: 80%
  pest or weed control at 125 g/ha: 100%
[2]; pre-emergence, Preemergence
  pest or weed control at 16 g/ha: 20%
  pest or weed control at 31 g/ha: 35%
  pest or weed control at 62 g/ha: 95%
  pest or weed control at 125 g/ha: 100%
[3]; post-emergence, Postemergence
  pest or weed control at 16 g/ha: 95%
  pest or weed control at 31 g/ha: 90%
  pest or weed control at 62 g/ha: 100%
  pest or weed control at 125 g/ha: 100%
[3]; pre-emergence, Preemergence
  pest or weed control at 16 g/ha: 95%
  pest or weed control at 31 g/ha: 100%
  pest or weed control at 62 g/ha: 100%
  pest or weed control at 125 g/ha: 100%
[4]; post-emergence, Postemergence
  pest or weed control at 16 g/ha: 85%
  pest or weed control at 31 g/ha: 100%
  pest or weed control at 62 g/ha: 100%
  pest or weed control at 125 g/ha: 100%
[4]; pre-emergence, Preemergence
  pest or weed control at 16 g/ha: 100%
  pest or weed control at 31 g/ha: 100%
  pest or weed control at 62 g/ha: 100%
  pest or weed control at 125 g/ha: 100%

## Fc1cccc(Oc2ncc(Br)cn2)c1-c1cc(C(F)F)no1 [Compound 145, 5-bromo-2-[2-[3-(difluoromethyl)-5-isoxazolyl]-3-fluorophenoxy]pyrimidine]
[1]; post-emergence, Postemergence
  pest or weed control at 16 g/ha: 95%
  pest or weed control at 31 g/ha: 95%
  pest or weed control at 62 g/ha: 98%
  pest or weed control at 125 g/ha: 100%
[1]; pre-emergence, Preemergence
  pest or weed control at 16 g/ha: 25%
  pest or weed control at 31 g/ha: 100%
  pest or weed control at 62 g/ha: 100%
  pest or weed control at 125 g/ha: 100%
[2]; post-emergence, Postemergence
  pest or weed control at 16 g/ha: 15%
  pest or weed control at 31 g/ha: 30%
  pest or weed control at 62 g/ha: 40%
  pest or weed control at 125 g/ha: 98%
[2]; pre-emergence, Preemergence
  pest or weed control at 16 g/ha: 0%
  pest or weed control at 31 g/ha: 45%
  pest or weed control at 62 g/ha: 55%
  pest or weed control at 125 g/ha: 100%
[3]; post-emergence, Postemergence
  pest or weed control at 16 g/ha: 65%
  pest or weed control at 31 g/ha: 100%
  pest or weed control at 62 g/ha: 90%
  pest or weed control at 125 g/ha: 100%
[3]; pre-emergence, Preemergence
  pest or weed control at 16 g/ha: 100%
  pest or weed control at 31 g/ha: 100%
  pest or weed control at 62 g/ha: 100%
  pest or weed control at 125 g/ha: 100%
[4]; post-emergence, Postemergence
  pest or weed control at 16 g/ha: 80%
  pest or weed control at 31 g/ha: 85%
  pest or weed control at 62 g/ha: 100%
  pest or weed control at 125 g/ha: 95%
[4]; pre-emergence, Preemergence
  pest or weed control at 16 g/ha: 100%
  pest or weed control at 31 g/ha: 100%
  pest or weed control at 62 g/ha: 100%
  pest or weed control at 125 g/ha: 100%
